Experimental data from patent US20160158200A1, “Combinations of Hepatitis C Virus Inhibitors” (priority 2013, published 2016).

Test system: HCV genotype-1a variant with glutamine 30 changed to glutamate in the NS5A protein
Type: cell-based
Conditions: test compound titrated with BMS-790052 fixed at 200 nM; genotype 1a Q30E replicon
Procedure, shortened: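 Synergy was assessed by combining several fixed amounts of an NS5A-targeting compound with a titration of the second compound of interest.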

Structure (SMILES)	Fold-Synergistic 1a (Q30E)
CC(C)(C)OC(=O)N1CC(C)(C)OCC1C(=O)NC(c1nc(-c2ccc(-c3ccc(-c4c[nH]c(C(NC(=O)C5COC(C)(C)CN5C(=O)OC(C)(C)C)C(C)(C)C)n4)cc3)cc2)c[nH]1)C(C)(C)C [Compound L-60]	>100 fold
CC(C)(C)OC(=O)N1CCOCC1C(=O)NC(c1nc(-c2ccc(-c3ccc(-c4c[nH]c(C(NC(=O)C5COCCN5C(=O)OC(C)(C)C)C(C)(C)C)n4)cc3)cc2)c[nH]1)C(C)(C)C [Compound L-61]	>100 fold
CN(CC(F)(F)F)C(C)(C)C(=O)NC(c1nc(-c2ccc(-c3ccc(-c4c[nH]c(C(NC(=O)C(C)(C)N(C)CC(F)(F)F)C(C)(C)C)n4)cc3)cc2)c[nH]1)C(C)(C)C [Compound L-62]	>100 fold
CC(C)(C)OC(=O)N1CC(C)(C(=O)NC(c2nc(-c3ccc(-c4ccc(-c5c[nH]c(C(NC(=O)C6(C)CN(C(=O)OC(C)(C)C)C6)C(C)(C)C)n5)cc4)cc3)c[nH]2)C(C)(C)C)C1 [Compound L-63]	>100 fold
CC(C)(C)C(NC(=O)C1CCCO1)c1nc(-c2ccc(-c3ccc(-c4c[nH]c(C(NC(=O)C5CCCO5)C(C)(C)C)n4)cc3)cc2)c[nH]1 [Compound L-64]	>100 fold
CC(C)(C)C(NC(=O)C1CCCO1)c1nc(-c2ccc(-c3ccc(-c4c[nH]c(C(NC(=O)C5CCCO5)C(C)(C)C)n4)cc3)cc2)c[nH]1 [Compound L-65]	>100 fold
CC(C)(C)C(NC(=O)C1C2COCC21)c1nc(-c2ccc(-c3ccc(-c4c[nH]c(C(NC(=O)C5C6COCC65)C(C)(C)C)n4)cc3)cc2)c[nH]1 [Compound L-67]	>100 fold
CC(C)(C)C(NC(=O)C1COCCN1CC(F)(F)F)c1nc(-c2ccc(-c3ccc(-c4c[nH]c(C(NC(=O)C5COCCN5CC(F)(F)F)C(C)(C)C)n4)cc3)cc2)c[nH]1 [Compound L-68]	>100 fold
CC(C)(C)C(NC(=O)C1(O)CCC1)c1nc(-c2ccc(-c3ccc(-c4c[nH]c(C(NC(=O)C5(O)CCC5)C(C)(C)C)n4)cc3)cc2)c[nH]1 [Compound L-71]	>100 fold
COC(=O)NC(C(=O)NC(c1nc(-c2ccc(-c3ccc(-c4c[nH]c(C(NC(=O)C(NC(=O)OC)C5CC(C)OC(C)C5)C(C)(C)C)n4)cc3)cc2)c[nH]1)C(C)(C)C)C1CC(C)OC(C)C1 [Compound L-72]	>10 fold
CC(C)(C)C(NC(=O)C1(O)CCCC1)c1nc(-c2ccc(-c3ccc(-c4c[nH]c(C(NC(=O)C5(O)CCCC5)C(C)(C)C)n4)cc3)cc2)c[nH]1 [Compound L-73]	>100 fold
CC(C)(C)C(NC(=O)C(O)C1CCCCC1)c1nc(-c2ccc(-c3ccc(-c4c[nH]c(C(NC(=O)C(O)C5CCCCC5)C(C)(C)C)n4)cc3)cc2)c[nH]1 [Compound L-74]	>100 fold
CC(C)(C)[C@H](NC(=O)C(C)(O)C1(C)CC1)c1nc(-c2ccc(-c3ccc(-c4c[nH]c([C@@H](NC(=O)C(C)(O)C5(C)CC5)C(C)(C)C)n4)cc3)cc2)c[nH]1 (stereo partly drawn) [Compound L-93b]	>100 fold
CC(C)(C)[C@H](NC(=O)[C@](C)(O)c1ccccc1)c1nc(-c2ccc(-c3ccc(-c4c[nH]c([C@@H](NC(=O)[C@](C)(O)c5ccccc5)C(C)(C)C)n4)cc3)cc2)c[nH]1 [Compound L-94]	>100 fold
CC(C)(C)[C@H](NC(=O)[C@@](C)(O)c1ccccc1)c1nc(-c2ccc(-c3ccc(-c4c[nH]c([C@@H](NC(=O)[C@@](C)(O)c5ccccc5)C(C)(C)C)n4)cc3)cc2)c[nH]1 [Compound L-95]	>100 fold
CC(C)(C)[C@H](NC(=O)C1(NCC(F)(F)F)CC1)c1nc(-c2ccc(-c3ccc(-c4c[nH]c([C@@H](NC(=O)C5(NCC(F)(F)F)CC5)C(C)(C)C)n4)cc3)cc2)c[nH]1 [Compound L-96]	>100 fold
CO[C@H](C)[C@H](NC(=O)[C@@]1(C)CCC(F)(F)CO1)c1nc(-c2ccc(-c3ccc(-c4c[nH]c([C@@H](NC(=O)[C@@]5(C)CCC(F)(F)CO5)[C@@H](C)OC)n4)cc3)cc2)c[nH]1 [Compound L-97]	>100 fold
